# Like-named read-outs stand apart in the source and are kept apart here.
# Tested on: maximal electroshock (MES) induced seizures
# Assay: Maximal electroshock (MES) test
# Assay type: in vivo, mice
# Conditions: 100 mg/kg i.p., mice; for responders at 100 mg/kg: Mus musculus, ip
# Source text: Male Kunming mice (23–28 g) were maintained under controlled conditions with ad libitum access to standard pellet diet and water. Test compounds were formulated immediately prior to administration in normal saline containing 0.5% Tween-80. Our experiment was authorized by the Institutional Animal Care and Use Committee of Shaanxi University of Chinese Medicine (animal ethics certificate number: SUCMDL20210309027).
# The MES test carried out following the method of Swinyard. A 60 Hz current (50 mA; 0.25 s duration) was delivered via corneal electrodes using a YSD-4G electro convulsion meter (Zhenghua Instruments, Huaibei, China, SN: ZH0056232). […] Test compounds were suspended in an identical vehicle. Protection was defined as abolition of tonic hindlimb extension.
# [1] = 0.5 h, read-out: MES model, protected mice/total mice, 0.5 h (converted)
# [2] = 1 h, read-out: MES model, protected mice/total mice, 1 h (converted)
# [3] = 2 h, read-out: MES model, protected mice/total mice, 2 h (converted)
# [4] = 3 h, read-out: MES model, protected mice/total mice, 3 h (converted)
Molecule,responders at 100 mg/kg [1] [%],responders at 100 mg/kg [2] [%],responders at 100 mg/kg [3] [%],responders at 100 mg/kg [4] [%],"MES model, protected mice/total mice, 0.5 h (0.5 h)","MES model, protected mice/total mice, 1 h (1 h)","MES model, protected mice/total mice, 2 h (2 h)","MES model, protected mice/total mice, 3 h (3 h)"
"C=CCc1ccc(OC(=O)CCCN2CCN(C(=O)/C=C/c3cc(OC)c(OC)c(OC)c3)CC2)c(OC)c1 [A2, 4-allyl-2-methoxyphenyl (E)-4-(4-(3-(3,4,5-trimethoxyphenyl)acryloyl)piperazin-1-yl)butanoate]",50,50,25,0,,,,
COc1cc(/C=C/C(=O)N2CCN(C(=O)CCC(=O)O)CC2)cc(OC)c1OC [B1],25,25,0,0,,,,
"COc1cc(/C=C/C(=O)N2CCN(CCCC(=O)O[C@H]3C[C@H]4CC[C@]3(C)C4(C)C)CC2)cc(OC)c1OC (relative stereo) [A7, rel-(1R,2S,4R)-1,7,7-trimethylbicyclo [2.2.1]heptan-2-yl 4-(4-((E)-3-(3,4,5-trimethoxyphenyl)acryloyl)piperazin-1-yl)butanoate]",75,50,25,0,,,,
"COc1cc(/C=C/C(=O)N2CCN(C(=O)CCC(=O)N3CCN(C(c4ccccc4)c4ccccc4)CC3)CC2)cc(OC)c1OC [B8, (E)-1-(4-benzhydrylpiperazin-1-yl)-4-(4-(3-(3,4,5-trimethoxyphenyl)acryloyl)piperazin-1-yl)butane-1,4-dione]",75,75,25,0,,,,
"C=CCc1ccccc1OC(=O)CCC(=O)N1CCN(C(=O)/C=C/c2cc(OC)c(OC)c(OC)c2)CC1 [B4, 2-allylphenyl (E)-4-oxo-4-(4-(3-(3,4,5-trimethoxyphenyl)acryloyl)piperazin-1-yl)butanoate]",75,50,50,0,,,,
"(E)-3-(2,4,5-trimethoxyphenyl)allyl 4-oxo-4-(4-((E)-3-(3,4,5-trimethoxyphenyl)acryloyl)piperazin-1-yl)butanoate [B5]",,,,,3/4,3/4,2/4,0/4
"COc1cc(/C=C/C(=O)N2CCN(CCCC(=O)N3CCN(c4nsc5ccccc45)CC3)CC2)cc(OC)c1OC [A10, (E)-1-(4-(benzo[d]isothiazol-3-yl)piperazin-1-yl)-4-(4-(3-(3,4,5-trimethoxyphenyl)acryloyl)piperazin-1-yl)butan-1-one]",75,25,25,0,,,,
"COc1cc(/C=C/C(=O)N2CCN(C(=O)CCC(=O)N3CCN(c4ccc(C(F)(F)F)cc4)CC3)CC2)cc(OC)c1OC [B14, (E)-1-(4-(4-(trifluoromethyl)phenyl)piperazin-1-yl)-4-(4-(3-(3,4,5-trimethoxyphenyl)acryloyl)piperazin-1-yl)butane-1,4-dione]",75,75,50,0,,,,
"(E)-3-(2,4,5-trimethoxyphenyl)allyl 4-oxo-4-(4-((E)-3-(3,4,5-trimethoxyphenyl)acryloyl)piperazin-1-yl)butanoate [B6]",,,,,2/4,1/4,1/4,0/4
COc1cc(/C=C/C(=O)N2CCN(CCCC(=O)O)CC2)cc(OC)c1OC [A1],25,25,0,0,,,,
"C/C=C/c1ccc(OC(=O)CCC(=O)N2CCN(C(=O)/C=C/c3cc(OC)c(OC)c(OC)c3)CC2)c(OC)c1 [B3, 2-methoxy-4-((E)-prop-1-en-1-yl)phenyl 4-oxo-4-(4-((E)-3-(3,4,5-trimethoxyphenyl)acryloyl)piperazin-1-yl)butanoate]",75,75,25,0,,,,
"C=CCc1ccccc1OC(=O)CCCN1CCN(C(=O)/C=C/c2cc(OC)c(OC)c(OC)c2)CC1 [A4, 2-allylphenyl (E)-4-(4-(3-(3,4,5-trimethoxyphenyl)acryloyl)piperazin-1-yl)butanoate]",50,50,25,0,,,,
"COc1ccccc1N1CCN(C(=O)CCC(=O)N2CCN(C(=O)/C=C/c3cc(OC)c(OC)c(OC)c3)CC2)CC1 [B15, (E)-1-(4-(2-methoxyphenyl)piperazin-1-yl)-4-(4-(3-(3,4,5-trimethoxyphenyl)acryloyl)piperazin-1-yl)butane-1,4-dione]",75,75,25,0,,,,
"C=CCc1ccc(OC(=O)CCC(=O)N2CCN(C(=O)/C=C/c3cc(OC)c(OC)c(OC)c3)CC2)c(OC)c1 [B2, 4-allyl-2-methoxyphenyl (E)-4-oxo-4-(4-(3-(3,4,5-trimethoxyphenyl)acryloyl)piperazin-1-yl)butanoate]",75,75,25,0,,,,
"COc1cc(/C=C/C(=O)N2CCN(C(=O)CCC(=O)N3CCC(c4noc5cc(F)ccc45)CC3)CC2)cc(OC)c1OC [B17, (E)-1-(4-(6-fluorobenzo[d]isoxazol-3-yl)piperidin-1-yl)-4-(4-(3-(3,4,5-trimethoxyphenyl)acryloyl)piperazin-1-yl)butane-1,4-dione]",50,50,25,0,,,,
"COc1cc(/C=C/C(=O)N2CCN(CCCC(=O)N3CCN(c4ccccc4)CC3)CC2)cc(OC)c1OC [A11, (E)-1-(4-phenylpiperazin-1-yl)-4-(4-(3-(3,4,5-trimethoxyphenyl)acryloyl)piperazin-1-yl)butan-1-one]",25,25,25,0,,,,
"COc1cc(/C=C/C(=O)N2CCN(CCCC(=O)N3CCC(c4noc5cc(F)ccc45)CC3)CC2)cc(OC)c1OC [A17, (E)-1-(4-(6-fluorobenzo[d]isoxazol-3-yl)piperidin-1-yl)-4-(4-(3-(3,4,5-trimethoxyphenyl)acryloyl)piperazin-1-yl)butan-1-one]",50,50,25,0,,,,
"COc1cc(/C=C/C(=O)N2CCN(C(=O)CCC(=O)N3CCN(c4nsc5ccccc45)CC3)CC2)cc(OC)c1OC [B10, (E)-1-(4-(benzo[d]isothiazol-3-yl)piperazin-1-yl)-4-(4-(3-(3,4,5-trimethoxyphenyl)acryloyl)piperazin-1-yl)butane-1,4-dione]",75,75,25,0,,,,
"COc1cc(/C=C/C(=O)N2CCN(CCCC(=O)N3CCN(c4cccc(Cl)c4)CC3)CC2)cc(OC)c1OC [A13, (E)-1-(4-(3-chlorophenyl)piperazin-1-yl)-4-(4-(3-(3,4,5-trimethoxyphenyl)acryloyl)piperazin-1-yl)butan-1-one]",25,25,0,0,,,,
"COc1cc(/C=C/C(=O)N2CCN(C(=O)CCC(=O)N3CCN(c4ncccn4)CC3)CC2)cc(OC)c1OC [B16, (E)-1-(4-(pyrimidin-2-yl)piperazin-1-yl)-4-(4-(3-(3,4,5-trimethoxyphenyl)acryloyl)piperazin-1-yl)butane-1,4-dione]",75,50,50,0,,,,
"COc1cc(/C=C/C(=O)N2CCN(C(=O)CCC(=O)N3CCN(c4ccccc4)CC3)CC2)cc(OC)c1OC [B11, (E)-1-(4-phenylpiperazin-1-yl)-4-(4-(3-(3,4,5-trimethoxyphenyl)acryloyl)piperazin-1-yl)butane-1,4-dione]",50,50,25,0,,,,
"COc1ccccc1N1CCN(C(=O)CCCN2CCN(C(=O)/C=C/c3cc(OC)c(OC)c(OC)c3)CC2)CC1 [A15, (E)-1-(4-(2-methoxyphenyl)piperazin-1-yl)-4-(4-(3-(3,4,5-trimethoxyphenyl)acryloyl)piperazin-1-yl)butan-1-one]",75,75,25,0,,,,
"COc1cc(/C=C/C(=O)N2CCN(C(=O)CCC(=O)O[C@H]3C[C@H]4CC[C@]3(C)C4(C)C)CC2)cc(OC)c1OC [B7, (1R,2S,4R)-1,7,7-trimethylbicyclo [2.2.1]heptan-2-yl 4-oxo-4-(4-((E)-3-(3,4,5-trimethoxyphenyl)acryloyl)piperazin-1-yl)butanoate]",75,50,25,0,,,,

# — PMC12472621, “Excavating Precursors from Herb Pairs Polygala tenuifolia and Acori tatarinowii: Synthesis and Anticonvulsant Activity Evaluation of 3,4,5-Trimethoxycinnamic Acid (TMCA) Piperazine Amide Derivatives” (Pharmaceuticals, 2025)
